Test results taken from ChEMBL document CHEMBL5291721, “A preclinical secondary pharmacology resource illuminates target-adverse drug reaction associations of marketed drugs” (Nat Commun, 2023).

Assays:
Mu-type opioid receptor = Mu-type opioid receptor (Homo sapiens, UniProt P35372); experiment: biochemical; format: functional
[1] = target: T1, Peroxisome proliferator-activated receptor gamma (Homo sapiens, UniProt P37231); format: functional
T1 sequence (P37231 whole entry): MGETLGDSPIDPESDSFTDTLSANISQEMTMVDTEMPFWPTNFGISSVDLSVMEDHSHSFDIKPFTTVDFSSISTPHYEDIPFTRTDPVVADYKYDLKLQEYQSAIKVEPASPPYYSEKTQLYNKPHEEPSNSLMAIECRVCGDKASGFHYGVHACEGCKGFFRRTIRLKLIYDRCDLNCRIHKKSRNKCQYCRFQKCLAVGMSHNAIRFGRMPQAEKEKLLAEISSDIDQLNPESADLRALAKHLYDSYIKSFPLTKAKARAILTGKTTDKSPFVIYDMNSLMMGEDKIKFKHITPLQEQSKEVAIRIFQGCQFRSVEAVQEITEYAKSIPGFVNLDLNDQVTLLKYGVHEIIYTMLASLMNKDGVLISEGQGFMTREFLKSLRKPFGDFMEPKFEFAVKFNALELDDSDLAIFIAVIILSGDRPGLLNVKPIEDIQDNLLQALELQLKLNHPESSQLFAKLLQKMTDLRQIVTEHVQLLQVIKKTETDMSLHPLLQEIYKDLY

Glucocorticoid receptor = target: T2, Glucocorticoid receptor (Homo sapiens, UniProt P04150); format: functional
T2 sequence (P04150 whole entry): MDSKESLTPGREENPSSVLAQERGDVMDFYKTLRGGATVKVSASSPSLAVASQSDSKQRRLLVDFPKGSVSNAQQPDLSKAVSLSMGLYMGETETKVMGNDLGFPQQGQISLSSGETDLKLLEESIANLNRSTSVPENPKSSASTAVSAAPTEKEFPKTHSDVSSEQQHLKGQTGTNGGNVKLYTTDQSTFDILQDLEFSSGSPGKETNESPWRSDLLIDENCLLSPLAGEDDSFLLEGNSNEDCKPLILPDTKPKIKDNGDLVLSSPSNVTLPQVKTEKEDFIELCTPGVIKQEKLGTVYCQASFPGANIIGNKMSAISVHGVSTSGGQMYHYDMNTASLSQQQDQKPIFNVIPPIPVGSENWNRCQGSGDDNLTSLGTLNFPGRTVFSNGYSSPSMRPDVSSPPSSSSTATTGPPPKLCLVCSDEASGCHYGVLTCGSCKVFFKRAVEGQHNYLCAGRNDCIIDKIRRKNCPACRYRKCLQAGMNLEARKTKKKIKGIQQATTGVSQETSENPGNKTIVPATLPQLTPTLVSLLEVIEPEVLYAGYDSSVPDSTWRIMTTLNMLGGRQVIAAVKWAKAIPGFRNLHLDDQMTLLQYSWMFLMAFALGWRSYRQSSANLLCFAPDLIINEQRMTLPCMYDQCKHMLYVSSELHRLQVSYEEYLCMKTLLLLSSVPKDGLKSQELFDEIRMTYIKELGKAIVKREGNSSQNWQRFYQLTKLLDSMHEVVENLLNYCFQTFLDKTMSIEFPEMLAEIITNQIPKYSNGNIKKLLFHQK

Progesterone receptor = target: T3, Progesterone receptor (Homo sapiens, UniProt P06401)
T3 sequence (P06401 whole entry): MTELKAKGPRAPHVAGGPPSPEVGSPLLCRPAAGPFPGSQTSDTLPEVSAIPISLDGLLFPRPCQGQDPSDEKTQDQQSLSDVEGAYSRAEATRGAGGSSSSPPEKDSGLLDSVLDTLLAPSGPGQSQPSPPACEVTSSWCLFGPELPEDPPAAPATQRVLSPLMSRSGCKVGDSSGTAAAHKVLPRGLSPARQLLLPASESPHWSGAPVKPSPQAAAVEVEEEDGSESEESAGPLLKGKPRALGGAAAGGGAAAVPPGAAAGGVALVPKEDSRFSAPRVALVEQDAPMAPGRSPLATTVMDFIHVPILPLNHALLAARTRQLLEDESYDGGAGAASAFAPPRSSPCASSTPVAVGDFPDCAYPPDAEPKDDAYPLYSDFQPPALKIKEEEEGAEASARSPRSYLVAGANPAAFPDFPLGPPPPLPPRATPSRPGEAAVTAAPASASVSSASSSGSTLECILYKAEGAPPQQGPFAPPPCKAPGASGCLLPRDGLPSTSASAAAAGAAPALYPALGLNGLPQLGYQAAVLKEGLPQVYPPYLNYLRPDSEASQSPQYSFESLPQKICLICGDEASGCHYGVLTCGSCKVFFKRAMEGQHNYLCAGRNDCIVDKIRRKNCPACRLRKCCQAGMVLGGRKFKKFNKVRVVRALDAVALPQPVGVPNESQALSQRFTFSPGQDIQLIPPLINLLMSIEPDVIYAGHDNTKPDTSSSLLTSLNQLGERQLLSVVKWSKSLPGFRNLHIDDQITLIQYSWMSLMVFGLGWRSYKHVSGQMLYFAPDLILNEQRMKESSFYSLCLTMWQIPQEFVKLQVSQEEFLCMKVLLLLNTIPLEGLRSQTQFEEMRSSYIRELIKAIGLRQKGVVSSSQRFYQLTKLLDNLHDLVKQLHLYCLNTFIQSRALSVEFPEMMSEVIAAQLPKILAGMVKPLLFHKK

D(1A) dopamine receptor = D(1A) dopamine receptor (Homo sapiens, UniProt P21728)
[2] = target: T4, Alpha-1A adrenergic receptor (Homo sapiens, UniProt P35348)
T4 sequence (P35348 whole entry): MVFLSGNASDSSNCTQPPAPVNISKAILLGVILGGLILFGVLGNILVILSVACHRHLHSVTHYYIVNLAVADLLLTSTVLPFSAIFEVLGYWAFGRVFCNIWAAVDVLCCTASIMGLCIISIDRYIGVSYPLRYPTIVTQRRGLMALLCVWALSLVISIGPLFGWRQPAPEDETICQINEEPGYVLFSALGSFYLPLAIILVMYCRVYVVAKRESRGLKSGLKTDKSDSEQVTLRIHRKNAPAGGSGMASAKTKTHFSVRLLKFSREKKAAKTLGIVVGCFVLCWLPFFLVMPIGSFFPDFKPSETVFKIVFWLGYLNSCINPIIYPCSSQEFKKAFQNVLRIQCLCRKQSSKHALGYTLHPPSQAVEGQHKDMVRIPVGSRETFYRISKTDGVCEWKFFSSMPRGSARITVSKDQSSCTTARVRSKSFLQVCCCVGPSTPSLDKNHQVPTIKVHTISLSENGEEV

[3] = target: Beta-3 adrenergic receptor (Homo sapiens, UniProt P13945)
[4] = target: Voltage-dependent N-type calcium channel subunit alpha-1B (Rattus norvegicus, UniProt Q02294); format: functional
Also: assay procedure not described here.

Beta-3 adrenergic receptor, sequence (P13945 whole entry): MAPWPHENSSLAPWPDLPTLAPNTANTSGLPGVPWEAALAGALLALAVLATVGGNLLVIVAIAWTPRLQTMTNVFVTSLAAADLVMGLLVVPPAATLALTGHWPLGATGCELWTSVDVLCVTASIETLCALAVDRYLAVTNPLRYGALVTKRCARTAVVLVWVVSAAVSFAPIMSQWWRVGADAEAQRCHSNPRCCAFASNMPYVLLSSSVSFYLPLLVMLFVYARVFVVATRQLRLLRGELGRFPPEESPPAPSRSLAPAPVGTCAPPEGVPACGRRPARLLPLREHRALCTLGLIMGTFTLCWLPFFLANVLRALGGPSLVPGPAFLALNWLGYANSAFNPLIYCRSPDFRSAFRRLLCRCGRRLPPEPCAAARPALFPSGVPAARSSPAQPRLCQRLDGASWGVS
Mu-type opioid receptor, sequence (P35372 whole entry): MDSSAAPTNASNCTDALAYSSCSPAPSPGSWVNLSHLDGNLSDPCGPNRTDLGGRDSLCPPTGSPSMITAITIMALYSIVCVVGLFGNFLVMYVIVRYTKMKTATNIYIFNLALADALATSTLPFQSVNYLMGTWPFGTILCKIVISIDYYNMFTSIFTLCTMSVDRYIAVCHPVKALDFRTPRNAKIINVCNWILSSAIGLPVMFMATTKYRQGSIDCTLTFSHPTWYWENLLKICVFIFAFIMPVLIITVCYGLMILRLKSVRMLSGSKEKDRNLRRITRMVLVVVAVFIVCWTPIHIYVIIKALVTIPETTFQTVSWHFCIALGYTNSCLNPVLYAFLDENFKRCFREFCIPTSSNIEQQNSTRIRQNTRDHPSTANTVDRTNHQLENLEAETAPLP
D(1A) dopamine receptor, sequence (P21728 whole entry): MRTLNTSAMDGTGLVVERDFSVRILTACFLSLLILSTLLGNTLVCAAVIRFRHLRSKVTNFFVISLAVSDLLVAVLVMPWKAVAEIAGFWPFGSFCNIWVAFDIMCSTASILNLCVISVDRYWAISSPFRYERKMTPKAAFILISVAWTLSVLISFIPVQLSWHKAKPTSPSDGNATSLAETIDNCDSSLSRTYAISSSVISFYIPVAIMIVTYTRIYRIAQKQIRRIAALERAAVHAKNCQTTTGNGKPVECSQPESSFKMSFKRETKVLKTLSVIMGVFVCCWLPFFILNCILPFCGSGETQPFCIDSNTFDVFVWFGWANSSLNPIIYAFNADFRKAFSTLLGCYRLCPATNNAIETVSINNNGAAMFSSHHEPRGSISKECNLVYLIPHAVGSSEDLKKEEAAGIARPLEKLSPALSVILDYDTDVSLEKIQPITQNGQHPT
Voltage-dependent N-type calcium channel subunit alpha-1B, sequence (Q02294 whole entry): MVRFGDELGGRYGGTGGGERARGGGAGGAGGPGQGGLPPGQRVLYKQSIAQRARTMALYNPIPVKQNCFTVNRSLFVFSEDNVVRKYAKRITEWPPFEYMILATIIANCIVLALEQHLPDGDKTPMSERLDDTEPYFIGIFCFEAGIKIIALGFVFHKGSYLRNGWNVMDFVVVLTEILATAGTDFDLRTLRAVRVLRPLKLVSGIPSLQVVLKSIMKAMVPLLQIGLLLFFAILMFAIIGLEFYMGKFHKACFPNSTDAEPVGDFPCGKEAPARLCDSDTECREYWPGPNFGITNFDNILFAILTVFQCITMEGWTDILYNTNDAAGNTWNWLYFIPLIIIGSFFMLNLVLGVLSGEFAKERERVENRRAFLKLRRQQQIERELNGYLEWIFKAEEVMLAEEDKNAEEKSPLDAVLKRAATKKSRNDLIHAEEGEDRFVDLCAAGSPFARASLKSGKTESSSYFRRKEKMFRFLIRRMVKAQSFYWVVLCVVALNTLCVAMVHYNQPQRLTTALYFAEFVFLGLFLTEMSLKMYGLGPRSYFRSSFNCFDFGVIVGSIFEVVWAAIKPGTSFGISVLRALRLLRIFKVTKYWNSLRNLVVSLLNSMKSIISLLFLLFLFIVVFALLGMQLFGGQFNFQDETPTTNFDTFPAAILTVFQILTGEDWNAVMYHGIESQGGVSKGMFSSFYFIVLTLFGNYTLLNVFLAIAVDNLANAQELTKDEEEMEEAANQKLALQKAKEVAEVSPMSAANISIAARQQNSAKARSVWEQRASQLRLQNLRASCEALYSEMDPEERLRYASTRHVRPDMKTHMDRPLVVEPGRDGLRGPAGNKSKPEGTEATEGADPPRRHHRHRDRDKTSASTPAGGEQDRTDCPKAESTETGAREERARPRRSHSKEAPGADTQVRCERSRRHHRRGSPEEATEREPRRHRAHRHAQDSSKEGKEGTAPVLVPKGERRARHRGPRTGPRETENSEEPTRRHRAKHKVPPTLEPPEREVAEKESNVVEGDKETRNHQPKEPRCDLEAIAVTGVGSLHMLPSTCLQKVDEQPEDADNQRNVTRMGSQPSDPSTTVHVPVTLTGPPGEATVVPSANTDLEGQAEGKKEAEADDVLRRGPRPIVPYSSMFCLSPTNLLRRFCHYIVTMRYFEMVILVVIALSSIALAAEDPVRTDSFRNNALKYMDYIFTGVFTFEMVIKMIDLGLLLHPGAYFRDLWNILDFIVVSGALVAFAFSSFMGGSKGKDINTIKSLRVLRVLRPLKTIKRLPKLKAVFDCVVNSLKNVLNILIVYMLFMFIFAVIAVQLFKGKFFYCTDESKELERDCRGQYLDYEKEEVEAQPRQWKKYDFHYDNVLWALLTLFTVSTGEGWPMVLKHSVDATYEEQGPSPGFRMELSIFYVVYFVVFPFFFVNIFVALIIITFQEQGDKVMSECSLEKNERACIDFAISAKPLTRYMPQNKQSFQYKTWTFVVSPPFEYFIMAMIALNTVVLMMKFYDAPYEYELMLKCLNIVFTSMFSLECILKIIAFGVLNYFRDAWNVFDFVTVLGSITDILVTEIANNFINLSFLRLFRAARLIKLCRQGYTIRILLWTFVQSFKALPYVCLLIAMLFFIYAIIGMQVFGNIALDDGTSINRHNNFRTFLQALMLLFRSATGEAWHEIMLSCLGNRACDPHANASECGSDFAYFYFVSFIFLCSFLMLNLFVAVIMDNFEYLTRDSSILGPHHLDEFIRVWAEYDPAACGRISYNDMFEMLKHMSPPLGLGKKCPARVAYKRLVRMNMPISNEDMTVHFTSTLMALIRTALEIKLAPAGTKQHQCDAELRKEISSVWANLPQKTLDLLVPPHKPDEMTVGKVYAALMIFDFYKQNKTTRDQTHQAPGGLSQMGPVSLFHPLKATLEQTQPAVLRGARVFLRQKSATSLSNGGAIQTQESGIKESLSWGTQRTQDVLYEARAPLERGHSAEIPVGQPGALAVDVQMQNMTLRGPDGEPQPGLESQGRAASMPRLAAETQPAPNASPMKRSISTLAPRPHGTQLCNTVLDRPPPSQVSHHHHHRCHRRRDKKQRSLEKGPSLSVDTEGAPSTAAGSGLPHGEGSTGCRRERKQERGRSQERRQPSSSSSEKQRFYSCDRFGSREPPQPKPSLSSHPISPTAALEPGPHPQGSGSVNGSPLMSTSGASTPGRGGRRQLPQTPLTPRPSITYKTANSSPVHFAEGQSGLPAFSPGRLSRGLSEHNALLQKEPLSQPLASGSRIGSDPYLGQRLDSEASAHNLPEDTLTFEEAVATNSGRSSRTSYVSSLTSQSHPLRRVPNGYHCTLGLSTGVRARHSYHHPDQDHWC

AC50 (Mu-type opioid receptor) [µM] | AC50 (Progesterone receptor) [µM] | AC50 (D(1A) dopamine receptor) [µM] | AC50 [2] [µM] | AC50 [3] [µM] | AC50 [4] [µM] | Compound | further results
> 30 |  |  |  |  |  | Cc1nc([N+](=O)[O-])cn1-c1ccc([N+](=O)[O-])cc1 [NITREFAZOLE] | 
 |  |  |  |  |  | C1CCC(C(CC2CCCCN2)C2CCCCC2)CC1 (stereo not given) [PERHEXILINE] | AC50 [1]: > 30 µM; AC50 (Glucocorticoid receptor): > 30 µM
 |  |  |  |  |  | CNC1Cc2ccccc2N(C)c2ccccc21 (stereo not given) [METAPRAMINE] | AC50 [1]: > 30 µM; AC50 (Glucocorticoid receptor): > 30 µM
 | > 30 |  |  |  |  | CNC(=O)c1ccccc1Sc1ccc2c(/C=C/c3ccccn3)n[nH]c2c1 [AXITINIB] | AC50 (Glucocorticoid receptor): > 10 µM
> 30 |  |  |  |  |  | Nc1nc(NC2CC2)c2ncn([C@H]3C=C[C@@H](CO)C3)c2n1 [ABACAVIR] | 
 | > 30 |  | > 10 | > 30 | > 10 | CC1=C(C(=O)O)N2C(=O)[C@@H](NC(=O)[C@H](N)c3ccccc3)[C@H]2SC1 [CEPHALEXIN ANHYDROUS] | 
 | > 30 |  |  |  |  | CN1C(C(=O)Nc2ccccn2)=C(O)c2sc(Cl)cc2S1(=O)=O [LORNOXICAM] | 
> 30 | > 30 | > 10 | 1.92 | > 30 | > 10 | Clc1ccc2nsnc2c1NC1=NCCN1 [TIZANIDINE] | 
> 30 |  |  |  |  |  | CC(=O)NCCCS(=O)(=O)O [ACAMPROSATE] | 
 | > 30 | > 10 | > 10 | 5.2 | > 10 | Cc1ccc(-c2cc(C(F)(F)F)nn2-c2ccc(S(N)(=O)=O)cc2)cc1 [CELECOXIB] | 
> 30 |  |  |  |  |  | COc1ccccc1OCC(O)CN1CCN(CC(=O)Nc2c(C)cccc2C)CC1 (stereo not given) [RANOLAZINE] | 
 | > 30 | > 10 | > 10 | > 30 | > 10 | CN(C)CCC(c1ccc(Cl)cc1)c1ccccn1 (stereo not given) [CHLORPHENIRAMINE] | 
 |  |  |  |  |  | CCC1=C(C)CN(C(=O)NCCc2ccc(S(=O)(=O)NC(=O)N[C@H]3CC[C@H](C)CC3)cc2)C1=O [GLIMEPIRIDE] | AC50 (Glucocorticoid receptor): > 30 µM
> 30 |  |  |  |  |  | CN(C)/N=N/c1[nH]cnc1C(N)=O [DACARBAZINE] | 
> 30 | > 30 | > 10 | > 10 | > 30 | > 10 | CCC(C)n1ncn(-c2ccc(N3CCN(c4ccc(OCC5COC(Cn6cncn6)(c6ccc(Cl)cc6Cl)O5)cc4)CC3)cc2)c1=O (stereo not given) [ITRACONAZOLE] | 
 |  |  |  |  |  | O=C(OCC(O)CO)c1ccccc1Nc1ccnc2cc(Cl)ccc12 (stereo not given) [GLAFENINE] | AC50 [1]: > 30 µM
> 30 |  |  |  |  |  | CCCCN1C[C@H](O)[C@@H](O)[C@H](O)[C@H]1CO | 
 | > 30 | > 10 | > 10 | > 30 | > 10 | CCOC(=O)[C@H](CCc1ccccc1)N[C@@H](C)C(=O)N1[C@H](C(=O)O)C[C@@H]2CCC[C@@H]21 | 
 | 7.61 | > 10 |  | > 30 | > 10 | C[C@]12CCC(=O)C=C1CC[C@@H]1[C@@H]2[C@@H](O)C[C@@]2(C)[C@H]1CC[C@]2(O)C(=O)CO [HYDROCORTISONE] | 
> 30 |  |  |  |  |  | COc1cc2nc(N(C)CCCNC(=O)C3CCCO3)nc(N)c2cc1OC (stereo not given) [ALFUZOSIN] | 

Compound | AC50 (Mu-type opioid receptor) [µM] | AC50 (Progesterone receptor) [µM] | AC50 (D(1A) dopamine receptor) [µM] | AC50 [2] [µM] | AC50 [3] [µM] | AC50 [4] [µM] | further results
C[N+]1(C)CCC(OC(=O)C(O)(c2ccccc2)C2CCCC2)C1 (stereo not given) [GLYCOPYRRONIUM BROMIDE] |  | > 30 |  |  |  |  | 
Cn1nnc2c(C(N)=O)ncn2c1=O [TEMOZOLOMIDE] |  | > 30 | > 10 | > 10 | > 30 | > 10 | AC50 [1]: > 30 µM
CN1C(=O)CCS(=O)(=O)C1c1ccc(Cl)cc1 (stereo not given) [CHLORMEZANONE] | > 30 |  |  |  |  |  | 
C=CCc1ccccc1OCC(O)CNC(C)C (stereo not given) [ALPRENOLOL] | > 30 |  |  |  |  |  | 
O=C(O[C@H]1C[C@H]2CC[C@@H](C1)[N+]21CCCC1)C(O)(c1ccccc1)c1ccccc1 [TROSPIUM] | > 30 |  |  |  |  |  | 
Cc1cn([C@H]2C=C[C@@H](CO)O2)c(=O)[nH]c1=O [STAVUDINE] |  | > 30 | > 10 | > 10 | > 30 | > 10 | 
O=P1(NCCCl)OCCCN1CCCl (stereo not given) [IFOSFAMIDE] | > 30 |  |  |  |  |  | 
CCCSc1ccc2nc(NC(=O)OC)[nH]c2c1 [ALBENDAZOLE] |  | > 30 |  |  |  |  | 
CC1(C)NC(=O)N(c2ccc([N+](=O)[O-])c(C(F)(F)F)c2)C1=O [NILUTAMIDE] | > 30 |  |  |  |  |  | 
CC[C@H]1[C@@H](O)[C@@H]2[C@H](CC[C@]3(C)[C@@H]([C@H](C)CCC(=O)O)CC[C@@H]23)[C@@]2(C)CC[C@@H](O)C[C@@H]12 [OBETICHOLIC ACID] | > 30 |  |  |  |  |  | 
CO[C@H]1C[C@@H]2CC[C@@H](C)[C@@](O)(O2)C(=O)C(=O)N2CCCC[C@H]2C(=O)O[C@H]([C@H](C)C[C@@H]2CC[C@@H](O)[C@H](OC)C2)CC(=O)[C@H](C)/C=C(\C)[C@@H](O)[C@@H](OC)C(=O)[C@H](C)C[C@H](C)/C=C/C=C/C=C/1C [SIROLIMUS] |  | > 30 |  |  | 23.8 | > 10 | 
CS(=O)(=O)c1ccc(C2=C(c3ccccc3)C(=O)OC2)cc1 [ROFECOXIB] | > 30 | > 30 | > 10 | > 10 | > 30 | > 10 | 
Cc1cn([C@H]2C[C@H](N=[N+]=[N-])[C@@H](CO)O2)c(=O)[nH]c1=O [ZIDOVUDINE] |  | > 30 | > 10 | > 10 | > 30 | > 10 | 
CC[C@H]1OC(=O)[C@H](C)[C@@H](O[C@H]2C[C@@](C)(OC)[C@@H](O)[C@H](C)O2)[C@H](C)[C@@H](O[C@@H]2O[C@H](C)C[C@H](N(C)C)[C@H]2O)[C@](C)(O)C[C@@H](C)CN(C)[C@H](C)[C@@H](O)[C@]1(C)O [AZITHROMYCIN] |  | > 30 | > 10 | > 10 | > 30 | > 10 | 
O=C(Cc1ccc(-c2ccccc2)cc1)Nc1ccccn1 [DIFENPIRAMIDE] | > 30 |  |  |  |  |  | 
